“Also recorded” adds a separate entry of the source.

The subject of experiment [1] is human lung cancer cell line LU-65. The experiment is described as follows: tritiated thymidine incorporation, tumor cell growth (LU-65). The experiment is classed as cell-based. The settings on record: LU-65, FIG. 2B. An excerpt:
FIGS. 2A-2C show the effect of sphingosine derivatives on human tumor cell growth. In FIG. 2A the growth of human colonic cancer cell line COLO-205 was monitored. In FIG. 2B the growth of human lung cancer cell line LU-65 was monitored. In FIG. 2C the growth of human gastric cancer cell line MKN-74 was monitored. In each Figure the ordinate represents the percent inhibition of tritiated thymidine incorporation, the solid circles represent sphingosine, the open circles represent N,N-dimethylsphingosine and the triangles represent N,N,N-trimethylsphingosine.
An in vitro assay relying on tritiated thymidine incorporation can be used to ascertain the effect of various compounds on cell proliferation. Briefly, tumor cells are seeded in flat bottom 96 well plates (Corning, N.Y.) at a concentration of 2×10^4 cells per well. The cells are cultured for 2 days in DMEM containing various concentrations of sphingoid, which is added as a PBS solution. The medium then is supplemented with tritiated thymidine at a concentration of 0.5 μCi per well. Following a six hour incubation the cells are collected using the PHD Cell Harvester (Cambridge Technology, Cambridge, Mass.) and amounts of incorporated radioactivity are determined after adding a suitable cell lysing agent and scintillation cocktail, such as ScintiVerse BD (Fisher Scientific, Fairlawn, Calif.) which performs both functions. […]

The next experiment has as its system neutrophils. Put plainly: neutrophil superoxide production (cytochrome C reduction). The experiment is classed as cell-based, human. As to the method: FIGS. 13A and 13B depict the effect of various reagents on neutrophil function. In FIG. 13A, the effect of TMS on O2 production was determined by monitoring the superoxide-mediated reduction of cytochrome C (Clifford, Meth. Enz., 105, 393, 1981) by 10^6 neutrophils/ml at OD550 and an extinction coefficient of 21000/M/cm in a Beckman DU-50 spectrophotometer. The cells were preincubated for 10 minutes at room temperature with the noted concentrations of TMS prior to stimulation with 1 μM PMA (time 0).
Human neutrophils were obtained from normal male adults. Heparinized peripheral blood was mixed gently with an equal amount of 1% dextran solution in PBS in a 60 ml injection syringe. The mixture was allowed to sit vertically for 60 to 90 minutes at 37° C. The upper phase, which is rich in white blood cells, was mounted gently on the same volume of Ficoll-Paque (Pharmacia LKB, Uppsala, Sweden) in Falcon 2095 plastic test tubes (Becton Dickinson Labware, Lincoln Park, N.J.). Centrifugation at 450 g for 30 min at 4° C. brought the neutrophils to the bottom of the tubes. The upper phase and interface, which contains lymphocytes, were removed carefully by aspiration.
Superoxide production by neutrophils was quantitated by monitoring superoxide-mediated reduction of cytochrome C (Clifford, supra, in which the reduction is manifest as an increase in absorbance at 550 nm at an extinction coefficient of 21000/M/cm). Measurements were carried out with a Beckman DU-50 spectrophotometer at 37° C. using ≈1×10^6 neutrophils per ml. The cells were allowed to equilibrate for 10 min with TMS, or other effectors, prior to addition of 1 μM of PMA.

For another experiment, the system named is F1 melanoma cells. The experiment is described as follows: melanoma F1 cell proliferation (thymidine incorporation). In kind it is cell-based. The settings on record: F1, FIG. 5B. From the text:
FIGS. 5A and 5B depict the effect of N,N,N-trimethylsphingosine (open circles), N,N-dimethylsphingosine (solid circles) and sphingosine (open squares) on two melanoma cell lines, BL6, a highly malignant cell line (in FIG. 5A) and F1, a cell line of low malignancy, (in FIG. 5B). Cell proliferation was evidenced by tritiated thymidine incorporation into DNA.
An in vitro assay relying on tritiated thymidine incorporation can be used to ascertain the effect of various compounds on cell proliferation. Briefly, tumor cells are seeded in flat bottom 96 well plates (Corning, N.Y.) at a concentration of 2×10^4 cells per well. The cells are cultured for 2 days in DMEM containing various concentrations of sphingoid, which is added as a PBS solution. The medium then is supplemented with tritiated thymidine at a concentration of 0.5 μCi per well. Following a six hour incubation the cells are collected using the PHD Cell Harvester (Cambridge Technology, Cambridge, Mass.) and amounts of incorporated radioactivity are determined after adding a suitable cell lysing agent and scintillation cocktail, such as ScintiVerse BD (Fisher Scientific, Fairlawn, Calif.) which performs both functions.
Certain cancer cells show a higher metastatic potential and invasive capability than others. For example the BL6 and F10 melanoma cell lines are highly metastatic and invasive. […]

Another experiment concerns mouse CTLL-2 cells. The experiment is described as follows: CTLL-2 cell proliferation (thymidine incorporation). The following applies: FIG. 10. The experiment is classed as cell-based. As to the method: FIG. 10 depicts the effect of sphingosine derivatives on mouse T-cell line CTLL. Each point is the mean of three replicates. In the figure DMS represents N,N-dimethylsphingosine and TMS represents N,N,N-trimethylsphingosine.
For example, mouse CTLL-2 cells (ATCC No. TIB 214), a T lymphocyte cell line, were plated at 1.5×10^4 cells per well and exposed to test substances. Cell proliferation was monitored by thymidine incorporation.

As for `CCCCCCCCCCCCC/C=C/[C@@H](O)[C@H](CO)[N+](C)(C)C` [TMS, N,N,N-trimethylsphingosine], the “inhibition of tumor cell growth” value in experiment [1] is on record as “superior to sphingosine; also recorded: showed an advantage over DMS”. Besides, the “inhibition of oxyradical production” value in the experiment with neutrophils (15 μM, FIG. 13B) was “inhibited immediately”. In addition, the “inhibition of superoxide production” value in the experiment on neutrophils (20 μM) was “completely abolishes superoxide production”; in the experiment with neutrophils (dose-dependence, FIGS. 13A and 13B), “inhibited by TMS in a dose-dependent manner”. Besides, the neutrophil superoxide production entry with neutrophils (Example 5) is recorded as “profound effect”. Also, in the experiment with F1 melanoma cells, the “inhibition of cell growth” value was “more effective than DMS and sphingosine”. In addition, the “suppression of CTLL-2 cell growth” value in the experiment with mouse CTLL-2 cells is “effective in suppressing CTLL-2 cell growth”.

Source of the values: patent publication US5466716A, “Liposomal trimethylsphingosine” (The Biomembrane Institute, priority 1994, dated 1995).
